Measurements as given in US8017612B2, “Piperazine compound and use thereof as a HCV polymerase inhibitor” (priority 2006, dated 2011).

Legend:
[1] = target: T1, HCV polymerase (NS5B) type 1b (Hepatitis C virus genotype 1b, UniProt P26663); assay: Assay of enzyme (HCV polymerase) inhibitory activity, type 1b enzyme; type: biochemical, HCV BK strain (type 1b)
T1 construct: a region encoding NS5B (J Virol 1991 March, 65(3), 1105-13, 544 amino acids after deletion of 47 amino acids on the C-terminal); 6xHis (C); made in house; host or cells: Escherichia coli
In short: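 Rxn: NS5B 1b (BK, ΔC47, His6) 0.5 μg/ml; substrate RNA 5 μg/ml; ATP/GTP/CTP 50 μM, UTP 2 μM + [5,6-3H]UTP; 20 mM Tris pH 7.5, 5 mM MgCl2, 50 mM NaCl, 1 mM EDTA/DTT. 25 °C, 60 min. Stop with TCA/pyrophosphate, filter, scintillation count; IC50 vs. untreated.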

[2] = target: T2, HCV polymerase (NS5B) type 1a (Hepatitis C virus genotype 1a, UniProt P26664); assay: Assay of enzyme (HCV polymerase) inhibitory activity, type 1a enzyme; type: biochemical, HCV type 1a (cloned from the blood of patients)
T2 construct: made in house; host or cells: Escherichia coli (by the 'similar method' of the 1b enzyme)
In short: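 NS5B Δ47 C-term His6 (type 1a, 1.5 μg/ml); substrate RNA 5 μg/ml; ATP/GTP/CTP 50 μM, UTP 2 μM + [5,6-3H]UTP; Tris pH 7.5, MgCl2 5 mM; 25° C, 60 min. TCA/pyrophosphate stop, GF/B filter, scintillation. IC50 vs no-compound control.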

[3] = HCV polymerase inhibitory activity (IC50), 1b, type 1b enzyme 0.5 μg/ml, 25° C., 60 min
[4] = HCV polymerase inhibitory activity (IC50), 1a, type 1a enzyme 1.5 μg/ml, 25° C., 60 min
[5] = HCV polymerase inhibitory activity IC50, 1b, type 1b enzyme
[6] = HCV polymerase inhibitory activity IC50, 1a, type 1a enzyme

| SMILES | IC50 [1, 3] [nM] | IC50 [2, 4] [nM] | IC50 [1, 5] [nM] | IC50 [2, 6] [nM] |
| --- | --- | --- | --- | --- |
| COCc1ccc(CNC(=O)[C@H]2CN(c3cnc4cncnc4n3)CCN2S(=O)(=O)c2ccc(OC(F)(F)F)cc2)cc1 [Example 657, (R)-4-pteridin-7-yl-1-(4-trifluoromethoxy-benzenesulfonyl)-piperazine-2-carboxylic acid 4-methoxymethyl-benzylamide] | < 100 | < 100 |  |  |
| COc1ccc(CNC(=O)[C@H]2CN(c3cnc4cncnc4n3)CCN2S(=O)(=O)c2ccc(OC(F)(F)F)cc2)cc1 [Example 658, (R)-4-pteridin-7-yl-1-(4-trifluoromethoxy-benzenesulfonyl)-piperazine-2-carboxylic acid 4-methoxy-benzylamide] | < 100 | < 100 |  |  |
| O=C(NCc1ccc(-c2cccs2)s1)[C@H]1CN(c2cnc3cncnc3n2)CCN1S(=O)(=O)c1ccc(OC(F)(F)F)cc1 [Example 659, (R)-4-pteridin-7-yl-1-(4-trifluoromethoxy-benzenesulfonyl)-piperazine-2-carboxylic acid ([2,2′]bithiophenyl-5-ylmethyl)-amide] | < 100 | < 100 |  |  |
| O=C(NCc1ccc(C(F)(F)F)cc1)[C@H]1CN(c2cnc3cncnc3n2)CCN1S(=O)(=O)c1ccc(OC(F)(F)F)cc1 [Example 660, (R)-4-pteridin-7-yl-1-(4-trifluoromethoxy-benzenesulfonyl)-piperazine-2-carboxylic acid 4-trifluoromethyl-benzylamide] | < 100 | < 100 |  |  |
| CSc1ccc(CNC(=O)[C@H]2CN(c3cnc4cncnc4n3)CCN2S(=O)(=O)c2ccc(OC(F)(F)F)cc2)cc1 [Example 661, (R)-4-pteridin-7-yl-1-(4-trifluoromethoxy-benzenesulfonyl)-piperazine-2-carboxylic acid 4-methylsulfanyl-benzylamide] |  |  | < 100 | < 100 |
| CCCN1CC=C(CNC(=O)[C@H]2CN(c3cnc4cncnc4n3)CCN2S(=O)(=O)c2ccc(OC(F)(F)F)cc2)CC1 [Example 662, (R)-4-pteridin-7-yl-1-(4-trifluoromethoxy-benzenesulfonyl)-piperazine-2-carboxylic acid (1-propyl-1,2,3,6-tetrahydro-pyridin-4-ylmethyl)-amide] |  |  | 100 to 1000 | > 1000 |
| O=C(NCc1ccc(-c2ccccc2)cc1)[C@H]1CN(c2cnc3cncnc3n2)CCN1S(=O)(=O)c1ccc(OC(F)(F)F)cc1 [Example 663, (R)-4-pteridin-7-yl-1-(4-trifluoromethoxy-benzenesulfonyl)-piperazine-2-carboxylic acid (biphenyl-4-ylmethyl)-amide] |  |  | < 100 | < 100 |
| CCC(F)(F)c1ccc(CNC(=O)[C@H]2CN(c3nc4c(=O)[nH]ncc4s3)CCN2S(=O)(=O)c2ccc(OC(F)(F)F)cc2)cc1 [Example 664, (R)-4-(4-oxo-4,5-dihydro-thiazolo[4,5-d]pyridazin-2-yl)-1-(4-trifluoromethoxy-benzenesulfonyl)-piperazine-2-carboxylic acid 4-(1,1-difluoro-propyl)-benzylamide] |  |  | < 100 | < 100 |
| CC(C)(C)c1ccc(CNC(=O)[C@H]2CN(C(=O)/C=C\C(=O)O)CCN2S(=O)(=O)c2ccc(OC(F)(F)F)cc2)cc1 [Example 665, (Z)-4-[(R)-3-(4-tert-butyl-benzylcarbamoyl)-4-(4-trifluoromethoxy-benzenesulfonyl)-piperazin-1-yl]-4-oxo-but-2-enoic acid] |  |  | > 1000 | > 1000 |
| CCC(F)(F)c1ccc(CNC(=O)[C@H]2CN(C(=O)/C=C\C(=O)O)CCN2S(=O)(=O)c2ccc(OC(F)(F)F)cc2)cc1 [Example 666, (Z)-4-[(R)-3-[4-(1,1-difluoro-propyl)-benzylcarbamoyl]-4-(4-trifluoromethoxy-benzenesulfonyl)-piperazin-1-yl]-4-oxo-but-2-enoic acid] |  |  | > 1000 | > 1000 |
| CCC(F)(F)c1ccc(CNC(=O)[C@H]2CN(C(=O)/C=C/C(=O)O)CCN2S(=O)(=O)c2ccc(OC(F)(F)F)cc2)cc1 [Example 667, (E)-4-[(R)-3-[4-(1,1-difluoro-propyl)-benzylcarbamoyl]-4-(4-trifluoromethoxy-benzenesulfonyl)-piperazin-1-yl]-4-oxo-but-2-enoic acid] |  |  | 100 to 1000 | > 1000 |
| CC(C)(C)c1ccc(CNC(=O)[C@H]2CN(C(=O)/C=C/C(=O)O)CCN2S(=O)(=O)c2ccc(OC(F)(F)F)cc2)cc1 [Example 668, (E)-4-[(R)-3-(4-tert-butyl-benzylcarbamoyl)-4-(4-trifluoromethoxy-benzenesulfonyl)-piperazin-1-yl]-4-oxo-but-2-enoic acid] |  |  | > 1000 | > 1000 |
| CC(=O)N1CCN(S(=O)(=O)c2ccc(OC(F)(F)F)cc2)[C@@H](C(=O)NC[C@H]2CC[C@H](C(=O)O)CC2)C1 [Example 669, trans-4-({[(R)-4-acetyl-1-(4-trifluoromethoxy-benzenesulfonyl)-piperazine-2-carbonyl]-amino}-methyl)-cyclohexanecarboxylic acid] |  |  | > 1000 | > 1000 |
| CC(=O)N1CCC(CNC(=O)[C@H]2CN(C(C)=O)CCN2S(=O)(=O)c2ccc(OC(F)(F)F)cc2)CC1 [Example 670, (R)-4-acetyl-1-(4-trifluoromethoxy-benzenesulfonyl)-piperazine-2-carboxylic acid (1-acetyl-piperidin-4-ylmethyl)-amide] |  |  | > 1000 | > 1000 |
| COc1ccccc1CCNC(=O)[C@H]1CN(C(C)=O)CCN1S(=O)(=O)c1ccc(OC(F)(F)F)cc1 [Example 671, (R)-4-acetyl-1-(4-trifluoromethoxy-benzenesulfonyl)-piperazine-2-carboxylic acid [2-(2-methoxy-phenyl)-ethyl]-amide] |  |  | > 1000 | > 1000 |
| COc1cccc(CCNC(=O)[C@H]2CN(C(C)=O)CCN2S(=O)(=O)c2ccc(OC(F)(F)F)cc2)c1 [Example 672, (R)-4-acetyl-1-(4-trifluoromethoxy-benzenesulfonyl)-piperazine-2-carboxylic acid [2-(3-methoxy-phenyl)-ethyl]-amide] |  |  | > 1000 | > 1000 |
| COc1ccc(CCNC(=O)[C@H]2CN(C(C)=O)CCN2S(=O)(=O)c2ccc(OC(F)(F)F)cc2)cc1 [Example 673, (R)-4-acetyl-1-(4-trifluoromethoxy-benzenesulfonyl)-piperazine-2-carboxylic acid [2-(4-methoxy-phenyl)-ethyl]-amide] |  |  | > 1000 | > 1000 |
| CC(=O)N1CCN(S(=O)(=O)c2ccc(OC(F)(F)F)cc2)[C@@H](C(=O)NCCc2cccc(O)c2)C1 [Example 674, (R)-4-acetyl-1-(4-trifluoromethoxy-benzenesulfonyl)-piperazine-2-carboxylic acid [2-(3-hydroxy-phenyl)-ethyl]-amide] |  |  | > 1000 | > 1000 |
| CC(=O)N1CCN(S(=O)(=O)c2ccc(OC(F)(F)F)cc2)[C@@H](C(=O)NCCc2ccc(O)cc2)C1 [Example 675, (R)-4-acetyl-1-(4-trifluoromethoxy-benzenesulfonyl)-piperazine-2-carboxylic acid [2-(4-hydroxy-phenyl)-ethyl]-amide] |  |  | > 1000 | > 1000 |
| CCC(F)(F)c1ccc(CNC(=O)[C@H]2CN(c3cnc4[nH]cnc4n3)CCN2S(=O)(=O)c2ccc(OC(F)(F)F)cc2)cc1 [Example 676, (R)-4-(1H-imidazo[4,5-b]pyrazin-5-yl)-1-(4-trifluoromethoxy-benzenesulfonyl)-piperazine-2-carboxylic acid 4-(1,1-difluoro-propyl)-benzylamide] |  |  | < 100 | < 100 |
| CCC(F)(F)c1ccc(CNC(=O)[C@H]2CN(C(=O)NCC(=O)O)CCN2S(=O)(=O)c2ccc(OC(F)(F)F)cc2)cc1 [Example 677, {[(R)-3-[4-(1,1-difluoro-propyl)-benzylcarbamoyl]-4-(4-trifluoromethoxy-benzenesulfonyl)-piperazine-1-carbonyl]-amino}-acetic acid] |  |  | > 1000 | > 1000 |
| CCC(F)(F)c1ccc(CNC(=O)[C@H]2CN(C(=O)CC(=O)O)CCN2S(=O)(=O)c2ccc(OC(F)(F)F)cc2)cc1 [Example 678, 3-[(R)-3-[4-(1,1-difluoro-propyl)-benzylcarbamoyl]-4-(4-trifluoromethoxy-benzenesulfonyl)-piperazin-1-yl]-3-oxo-propionic acid] |  |  | > 1000 | > 1000 |
| CCC(F)(F)c1ccc(CNC(=O)[C@H]2CN(C(=O)C(=O)O)CCN2S(=O)(=O)c2ccc(OC(F)(F)F)cc2)cc1 [Example 679, [(R)-3-[4-(1,1-difluoro-propyl)-benzylcarbamoyl]-4-(4-trifluoromethoxy-benzenesulfonyl)-piperazin-1-yl]-oxo-acetic acid] |  |  | > 1000 | > 1000 |
| CCCn1ccc(CNC(=O)[C@H]2CN(c3cnc4cncnc4n3)CCN2S(=O)(=O)c2ccc(OC(F)(F)F)cc2)cc1=O [Example 680, (R)-4-pteridin-7-yl-1-(4-trifluoromethoxy-benzenesulfonyl)-piperazine-2-carboxylic acid (2-oxo-1-propyl-1,2-dihydro-pyridin-4-ylmethyl)-amide] |  |  | 100 to 1000 | > 1000 |
